How the values were obtained:
HDAC10 = molecular target: T1, HDAC10 (Homo sapiens, UniProt Q969S8); assay: Selective in vitro HDAC activity assay, recombinant HDAC10; format: biochemical; conditions: 100 µM
T1 sequence (Q969S8 1-669): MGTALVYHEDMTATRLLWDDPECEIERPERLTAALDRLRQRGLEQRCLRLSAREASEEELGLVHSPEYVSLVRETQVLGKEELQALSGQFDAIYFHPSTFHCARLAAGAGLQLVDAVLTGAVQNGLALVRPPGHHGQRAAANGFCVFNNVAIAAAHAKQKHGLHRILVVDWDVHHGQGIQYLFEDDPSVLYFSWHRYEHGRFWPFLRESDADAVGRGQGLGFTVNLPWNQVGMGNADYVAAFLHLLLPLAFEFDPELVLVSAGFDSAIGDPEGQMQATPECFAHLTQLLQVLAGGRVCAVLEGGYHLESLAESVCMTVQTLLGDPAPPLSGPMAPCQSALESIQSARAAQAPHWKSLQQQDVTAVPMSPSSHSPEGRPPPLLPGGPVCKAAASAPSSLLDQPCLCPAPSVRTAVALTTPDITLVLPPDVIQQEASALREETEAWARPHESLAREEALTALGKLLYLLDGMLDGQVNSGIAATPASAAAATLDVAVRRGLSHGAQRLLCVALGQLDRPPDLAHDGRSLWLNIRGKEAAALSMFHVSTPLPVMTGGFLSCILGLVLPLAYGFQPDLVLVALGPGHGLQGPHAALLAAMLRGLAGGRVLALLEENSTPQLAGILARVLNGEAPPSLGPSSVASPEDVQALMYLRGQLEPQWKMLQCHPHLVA
Method: (a) In vitro total HDAC activity was evaluated using K-562 nuclear extracts in the presence of various concentrations of eurochevalierine. (b) Selective in vitro HDAC activity assays were carried out using selected recombinant HDAC proteins in the presence of various concentrations of eurochevalierine. Results are reported as percent of DMSO vehicle control and expressed as the mean ± SD of three independent experiments. * and ** indicate p < 0.05 and p < 0.01 versus untreated cells, respectively.

A-549 cells = assay: Acetylation of sirtuin targets by Western blot, A-549; format: cell-based, human; conditions: A-549, 5 and 50 µM, 8 h
Method: Figure 5 Effect of eurochevalierine on the acetylation status of sirtuin targets. SK-MEL-28, U-373, and A-549 cells were treated with 5 and 50 µM eurochevalierine (EU) for 8 h. Acetylation of histone H4 (AcH4), histone H3 at lysine 56 (AcH3K56), and α-tubulin (Ac α-tubulin) was analyzed via Western blot. β-actin and histone H1 were used as loading controls for the analysis of total and acid extracts, respectively. SAHA (S, 1 µM) was used as a reference HDAC inhibitor. Blots are representative of three independent experiments.
Total proteins were extracted using the MPER® reagent (Thermo-scientific, Erembodegem-Aalst, Belgium) supplemented by 1× protease inhibitor cocktail (Complete EDTA-free, Roche, Prophac, Luxembourg, Luxembourg) according to manufacturer’s instructions. Histones were extracted as previously described. Western blots were carried out as previously reported.
Corresponding secondary antibodies were from Santa Cruz Biotechnology.

## C=C(C)[C@@H]1CC[C@@H](C)[C@@]2(O)[C@@H]1C=C(C)[C@@H](OC(C)=O)[C@@H]2OC(=O)[C@H](CC(=O)c1ccccc1NC)NC=O [Eurochevalierine, eurochevalierine]
HDAC10
  effect on HDAC10 deacetylase activity: without effect
A-549 cells
  acetylation of sirtuin targets (AcH4, AcH3K56, Ac α-tubulin): robust and dose-dependent increase
